Experimental data reported in patent publication US8455475B2 (Gruenenthal GmbH, priority 2009, dated 2013).

Molecular target: T1, rat B1R (bradykinin receptor 1) (Rattus norvegicus, UniProt P97583)
T1 construct: expressed in transfected cells; host or cells: CHO K1 cells
T1 sequence (P97583 1-337): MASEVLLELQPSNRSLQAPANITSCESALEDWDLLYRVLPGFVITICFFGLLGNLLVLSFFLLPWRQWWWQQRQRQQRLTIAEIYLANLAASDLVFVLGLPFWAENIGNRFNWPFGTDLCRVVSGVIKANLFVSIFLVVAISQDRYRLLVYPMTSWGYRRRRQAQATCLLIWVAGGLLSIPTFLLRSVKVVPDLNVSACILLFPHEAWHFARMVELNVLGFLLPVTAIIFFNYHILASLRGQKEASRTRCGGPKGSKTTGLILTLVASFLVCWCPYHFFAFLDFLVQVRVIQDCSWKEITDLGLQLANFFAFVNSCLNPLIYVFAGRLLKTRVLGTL
Assay: FLIPR Ca2+ assay (Fluo-4) on CHO K1 cells stably transfected with the B1R gene of the rat (rB1R cells): % inhibition at 10 μM / IC50, agonist Des-Arg9-bradykinin
Type: cell-based
Details: CHO-K1, rat B1R
Summary of the method: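 Antagonism is measured as the drop in peak Fluo-4 Ca2+ signal when the EC80 agonist follows 10–20 min compound exposure. The single-point screen uses 10 μM; IC50 uses several concentrations. Values are given as % of maximal achievable inhibition.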

| SMILES | inhibition at 10 µM [%] |
| --- | --- |
| N#Cc1ccccc1CN1CCC2(CC1)CCN(C(=O)c1ccc3c(c1)C(NC(=O)c1cc(C(F)(F)F)ccc1Cl)CC3)C2 (stereo not shown) [IND_CC-660, 2-Chloro-N-[6-[8-[(2-cyano-phenyl)-methyl]-2,8-diazaspiro[4.5]decane-2-carbonyl]-2,3-dihydro-1H-inden-1-yl]-5-(trifluoromethyl)-benzamide] | 50 |
| Cc1nc[nH]c1CN1CCC2(CC1)CCN(C(=O)c1ccc3c(c1)C(NC(=O)c1cc(C(F)(F)F)ccc1Cl)CC3)CC2 (stereo not shown) [IND_CC-661, 2-Chloro-N-[6-[9-[(5-methyl-3H-imidazol-4-yl)-methyl]-3,9-diazaspiro[5.5]-undecane-3-carbonyl]-2,3-dihydro-1H-inden-1-yl]-5-(trifluoromethyl)benzamide] | 95 |
| Cc1nc(CN2CCC3(CC2)CCN(C(=O)c2ccc4c(c2)C(NC(=O)c2cc(C(F)(F)F)ccc2Cl)CC4)CC3)c[nH]1 (stereo not shown) [IND_CC-662, 2-Chloro-N-[6-[9-[(2-methyl-1H-imidazol-4-yl)-methyl]-3,9-diazaspiro[5.5]-undecane-3-carbonyl]-2,3-dihydro-1H-inden-1-yl]-5-(trifluoromethyl)benzamide] | 76 |
| O=C(NC1CCc2ccc(C(=O)N3CCC4(CCN(Cc5csnn5)CC4)CC3)cc21)c1cc(C(F)(F)F)ccc1Cl (stereo not shown) [IND_CC-663, 2-Chloro-N-[6-[9-([1,2,3]thiadiazol-4-yl-methyl)-3,9-diazaspiro[5.5]undecane-3-carbonyl]-2,3-dihydro-1H-inden-1-yl]-5-(trifluoromethyl)-benzamide] | 85 |
| Cc1c(CN2CCC3(CC2)CCN(C(=O)c2ccc4c(c2)C(NC(=O)c2cc(C(F)(F)F)ccc2Cl)CC4)CC3)cnn1C (stereo not shown) [IND_CC-664, 2-Chloro-N-[6-[9-[(1,5-dimethyl-1H-pyrazol-4-yl)-methyl]-3,9-diazaspiro[5.5]-undecane-3-carbonyl]-2,3-dihydro-1H-inden-1-yl]-5-(trifluoromethyl)benzamide] | 54 |
| Cc1noc(C)c1CN1CCC2(CC1)CCN(C(=O)c1ccc3c(c1)C(NC(=O)c1cc(C(F)(F)F)ccc1Cl)CC3)CC2 (stereo not shown) [IND_CC-665, 2-Chloro-N-[6-[9-[(3,5-dimethyl-isoxazol-4-yl)-methyl]-3,9-diazaspiro[5.5]-undecane-3-carbonyl]-2,3-dihydro-1H-inden-1-yl]-5-(trifluoromethyl)benzamide] | 67 |
| N#Cc1ccc(CN2CCC3(CC2)CCN(C(=O)c2ccc4c(c2)C(NC(=O)c2cc(C(F)(F)F)ccc2Cl)CC4)CC3)cc1 (stereo not shown) [IND_CC-666, 2-Chloro-N-[6-[9-[(4-cyano-phenyl)-methyl]-3,9-diazaspiro[5.5]undecane-3-carbonyl]-2,3-dihydro-1H-inden-1-yl]-5-(trifluoromethyl)-benzamide] | 78 |
| N#Cc1cccc(CN2CCC3(CC2)CCN(C(=O)c2ccc4c(c2)C(NC(=O)c2cc(C(F)(F)F)ccc2Cl)CC4)CC3)c1 (stereo not shown) [IND_CC-667, 2-Chloro-N-[6-[9-[(3-cyano-phenyl)-methyl]-3,9-diazaspiro[5.5]undecane-3-carbonyl]-2,3-dihydro-1H-inden-1-yl]-5-(trifluoromethyl)-benzamide] | 85 |
| N#Cc1ccccc1CN1CCC2(CC1)CCN(C(=O)c1ccc3c(c1)C(NC(=O)c1cc(C(F)(F)F)ccc1Cl)CC3)CC2 (stereo not shown) [IND_CC-668, 2-Chloro-N-[6-[9-[(2-cyano-phenyl)-methyl]-3,9-diazaspiro[5.5]undecane-3-carbonyl]-2,3-dihydro-1H-inden-1-yl]-5-(trifluoromethyl)-benzamide] | 57 |
| O=C(NC1CCc2ccc(C(=O)N3CCC4(CCN(Cc5ccc(F)cc5Cl)CC4)CC3)cc21)c1cc(C(F)(F)F)ccc1Cl (stereo not shown) [IND_CC-669, 2-Chloro-N-[6-[9-[(2-chloro-4-fluoro-phenyl)-methyl]-3,9-diazaspiro[5.5]-undecane-3-carbonyl]-2,3-dihydro-1H-inden-1-yl]-5-(trifluoromethyl)benzamide] | 60 |
| O=C(NC1CCc2ccc(C(=O)N3CCC4(CCN(Cc5c(F)cccc5Cl)CC4)CC3)cc21)c1cc(C(F)(F)F)ccc1Cl (stereo not shown) [IND_CC-670, 2-Chloro-N-[6-[9-[(2-chloro-6-fluoro-phenyl)-methyl]-3,9-diazaspiro[5.5]-undecane-3-carbonyl]-2,3-dihydro-1H-inden-1-yl]-5-(trifluoromethyl)benzamide] | 67 |
| O=C(NC1CCc2ccc(C(=O)N3CCC4(CCN(Cc5ccc6ncccc6c5)CC4)C3)cc21)c1cc(Cl)ccc1F (stereo not shown) [IND_CC-671, 5-Chloro-2-fluoro-N-[6-[8-(quinolin-6-yl-methyl)-2,8-diazaspiro[4.5]decane-2-carbonyl]-2,3-dihydro-1H-inden-1-yl]-benzamide] | 80 |
| O=C(NC1CCc2ccc(C(=O)N3CCC4(CCN(Cc5ccc6nccnc6c5)CC4)C3)cc21)c1cc(Cl)ccc1F (stereo not shown) [IND_CC-672, 5-Chloro-2-fluoro-N-[6-[8-(quinoxalin-6-yl-methyl)-2,8-diazaspiro[4.5]decane-2-carbonyl]-2,3-dihydro-1H-inden-1-yl]-benzamide] | 88 |
| Cn1nnc2cc(CN3CCC4(CC3)CCN(C(=O)c3ccc5c(c3)C(NC(=O)c3cc(Cl)ccc3F)CC5)C4)ccc21 (stereo not shown) [IND_CC-673, 5-Chloro-2-fluoro-N-[6-[8-[(1-methyl-1H-benzotriazol-5-yl)-methyl]-2,8-diazaspiro[4.5]decane-2-carbonyl]-2,3-dihydro-1H-inden-1-yl]-benzamide] | 67 |
| O=C(NC1CCc2ccc(C(=O)N3CCC4(CCN(CCCc5ccc(F)cc5)CC4)C3)cc21)c1cc(Cl)ccc1F (stereo not shown) [IND_CC-675, 5-Chloro-2-fluoro-N-[6-[8-[3-(4-fluorophenyl)-propyl]-2,8-diazaspiro[4.5]decane-2-carbonyl]-2,3-dihydro-1H-inden-1-yl]-benzamide] | 87 |
| CN(C)c1ncc(CN2CCC3(CC2)CCN(C(=O)c2ccc4c(c2)C(NC(=O)c2cc(Cl)ccc2F)CC4)CC3)cn1 (stereo not shown) [IND_CC-676, 5-Chloro-N-[6-[9-[(2-dimethylamino-pyrimidin-5-yl)-methyl]-3,9-diazaspiro-[5.5]undecane-3-carbonyl]-2,3-dihydro-1H-inden-1-yl]-2-fluoro-benzamide] | 74 |
| O=C(NC1CCc2ccc(C(=O)N3CCC4(CCN(Cc5ccc6ncccc6c5)CC4)CC3)cc21)c1cc(Cl)ccc1F (stereo not shown) [IND_CC-677, 5-Chloro-2-fluoro-N-[6-[9-(quinolin-6-yl-methyl)-3,9-diazaspiro[5.5]undecane-3-carbonyl]-2,3-dihydro-1H-inden-1-yl]-benzamide] | 72 |
| O=C(NC1CCc2ccc(C(=O)N3CCC4(CCN(Cc5ccc6nccnc6c5)CC4)CC3)cc21)c1cc(Cl)ccc1F (stereo not shown) [IND_CC-678, 5-Chloro-2-fluoro-N-[6-[9-(quinoxalin-6-yl-methyl)-3,9-diazaspiro[5.5]undecane-3-carbonyl]-2,3-dihydro-1H-inden-1-yl]-benzamide] | 82 |
| Cn1nnc2cc(CN3CCC4(CC3)CCN(C(=O)c3ccc5c(c3)C(NC(=O)c3cc(Cl)ccc3F)CC5)CC4)ccc21 (stereo not shown) [IND_CC-679, 5-Chloro-2-fluoro-N-[6-[9-[(1-methyl-1H-benzotriazol-5-yl)-methyl]-3,9-diazaspiro[5.5]undecane-3-carbonyl]-2,3-dihydro-1H-inden-1-yl]-benzamide] | 82 |
